We go through one compound from ChEMBL document CHEMBL3046429, “Synthesis, molecular modeling study, preliminary antibacterial, and antitumor evaluation of N-substituted naphthalimides and their structural analogues” (2013).

Common to all, as to assay type: functional
For one assay, the system named is BT-549. Nature of the assay: Growth inhibition of Homo sapiens (human) BT549 cells at 10 uM after 48 hr by coulter counter analysis. As to conditions: BT-549, 48 h, read-out: GI.
The test system of another assay is OVCAR-8. Nature of the assay: Growth inhibition of Homo sapiens (human) OVCAR8 cells at 10 uM after 48 hr by coulter counter analysis. The settings on record: OVCAR-8, 48 h, read-out: GI.
The subject of a further assay is UACC-62. Nature of the assay: Growth inhibition of Homo sapiens (human) UACC62 cells at 10 uM after 48 hr by coulter counter analysis. The settings on record: UACC-62, 48 h, read-out: GI.
The next assay deals with Bacillus subtilis. Kind of assay: Antibacterial activity against Bacillus subtilis assessed as growth inhibition after 24 hr by two fold serial dilution method.
Another assay relates to MCF7. Kind of assay: Growth inhibition of Homo sapiens (human) MCF7 cells at 10 uM after 48 hr by coulter counter analysis. As to conditions: MCF7, 48 h, read-out: GI.
A further assay relates to MDA-MB-468. Kind of assay: Growth inhibition of Homo sapiens (human) MDA-MB-468 cells at 10 uM after 48 hr by coulter counter analysis. The settings on record: MDA-MB-468, 48 h, read-out: GI.
For the next assay, the system named is HCC 2998. Kind of assay: Growth inhibition of Homo sapiens (human) HCC2998 cells at 10 uM after 48 hr by coulter counter analysis. As to conditions: HCC 2998, 48 h, read-out: GI.
Another assay concerns NCI-H23. Nature of the assay: Growth inhibition of Homo sapiens (human) NCI-H23 cells at 10 uM after 48 hr by coulter counter analysis. The settings on record: NCI-H23, 48 h, read-out: GI.
In a further assay the test system is U-251. Kind of assay: Growth inhibition of Homo sapiens (human) U251 cells at 10 uM after 48 hr by coulter counter analysis. The settings on record: U-251, 48 h, read-out: GI.
In another assay the test system is Staphylococcus aureus. Nature of the assay: Antibacterial activity against Staphylococcus aureus assessed as growth inhibition after 24 hr by two fold serial dilution method.
A further assay deals with 786-0. Kind of assay: Growth inhibition of Homo sapiens (human) 786-0 cells at 10 uM after 48 hr by coulter counter analysis. As to conditions: 786-0, 48 h, read-out: GI.
The test system of the next assay is PC-3. Nature of the assay: Growth inhibition of Homo sapiens (human) PC3 cells at 10 uM after 48 hr by coulter counter analysis. The settings on record: PC-3, 48 h, read-out: GI.
A further assay relates to HT-29. Kind of assay: Growth inhibition of Homo sapiens (human) HT-29 cells at 10 uM after 48 hr by coulter counter analysis. As to conditions: HT-29, 48 h, read-out: GI.
Another assay deals with TK-10. Nature of the assay: Growth inhibition of Homo sapiens (human) TK10 cells at 10 uM after 48 hr by coulter counter analysis. The settings on record: TK-10, 48 h, read-out: GI.
Another assay concerns SK-MEL-5. Nature of the assay: Growth inhibition of Homo sapiens (human) SK-MEL-5 cells at 10 uM after 48 hr by coulter counter analysis. As to conditions: SK-MEL-5, 48 h, read-out: GI.
Another assay concerns SNB-19. Nature of the assay: Growth inhibition of Homo sapiens (human) SNB19 cells at 10 uM after 48 hr by coulter counter analysis. As to conditions: SNB-19, 48 h, read-out: GI.
A further assay relates to SNB-75. Nature of the assay: Growth inhibition of Homo sapiens (human) SNB75 cells at 10 uM after 48 hr by coulter counter analysis. As to conditions: SNB-75, 48 h, read-out: GI.
In a further assay the test system is EKVX. Nature of the assay: Growth inhibition of Homo sapiens (human) EKVX cells at 10 uM after 48 hr by coulter counter analysis. The settings on record: read-out: GI.
For another assay, the system named is OVCAR-4. Nature of the assay: Growth inhibition of Homo sapiens (human) OVCAR4 cells at 10 uM after 48 hr by coulter counter analysis. The settings on record: OVCAR-4, 48 h, read-out: GI.
The subject of another assay is Pseudomonas aeruginosa. Nature of the assay: Antibacterial activity against Pseudomonas aeruginosa assessed as growth inhibition after 24 hr by two-fold serial dilution method.
In the next assay the test system is MDA-MB-231. Nature of the assay: Growth inhibition of Homo sapiens (human) MDA-MB-231/ATCC cells at 10 uM after 48 hr by coulter counter analysis. The settings on record: MDA-MB-231, 48 h, read-out: GI.

Structures are written as SMILES. Converted amounts (≈) assume the structure as drawn.

Usually MIC stands for the lowest concentration that inhibits growth of the organism. In the case of `O=C1c2nccnc2C(=O)N1c1c(Cl)cc(Cl)cc1Cl`, the inhibition of growth at 10 µM with BT-549 is 4.48%; with OVCAR-8, 11%; in the assay on UACC-62, 1.42%; with MCF7, 3.64%; in the assay with MDA-MB-468, 17.8%; with HCC 2998 it was -4.24%. Also, the inhibition of growth at 10 µM in the assay on NCI-H23 was 0.61%; in the assay on U-251, -7.03%; with 786-0, 2.39%; with PC-3, 22.7%; with HT-29, 4.24%; with TK-10 it was -4.45%. Further, the inhibition of growth at 10 µM with SK-MEL-5 was -6.79%; in the assay on SNB-19 it was -2.3%; with SNB-75, 47.4%; in the assay with EKVX it was 8.2%; with OVCAR-4 it was -0.64%; in the assay with MDA-MB-231, 7.23%. In addition, the MIC in the assay with Bacillus subtilis amounted to 20 µg/mL (≈ 60.9 µM); with Staphylococcus aureus (Staphylococcus aureus, 24 h), 20 µg/mL (≈ 60.9 µM); in the assay with Pseudomonas aeruginosa, 20 µg/mL (≈ 60.9 µM). The “-logMIC” value in the assay on Staphylococcus aureus turned out to be 4.22.
